The subject of this assay is anoxic encephalopathy and ischemic events. As to the kind of experiment: Clinical case reports of patients with anoxic encephalopathy or ischemic events treated with N-acetylcystein. Type of assay: in vivo, human. From the text:
A person was admitted to the intensive care unit in a deep coma. Several hours prior to the admission, they suffered from a persistent ventricular arrhythmia that led to a cardiac arrest. They required nine successive electroshocks in order to reestablish their regular cardiac rhythm. The total interruption time of their blood supply to the brain was considered to be more than ten minutes. […] Their pupils were fixed and dilated, and they were placed on a mechanical ventilation. As they were unable to trigger the ventilator by themself, they were placed on an automatic mode of mechanical ventilation. There was no improvement in their condition over the next forty-eight hours. A neurologist determined their condition to be irreversible and hopeless. A second neurologist concurred. During the forty-eight hour interval, the patient was given 600 mg of N-acetylcystein in a twenty percent solution, administered via a nasal-gastric tube every twelve hours. […] They awakened and was able to communicate by head nods and facial expressions.
A high school teacher went into a cardiac arrest while driving in their car. By the time they arrived at a hospital emergency room and was resuscitated, a period of twenty to thirty minutes of an interruption of the blood supply to the brain had elapsed. Even though the cardiac resuscitation efforts were successful, they remained in a deep coma, a vegetative state, and required a life supporting mechanical ventilation. Over the next two years, they remained on mechanical ventilation, gastrostomy tube feedings, and in a coma without any improvement in their cerebral or neurological functions. Their prognosis for recovery was considered hopeless.
Approximately two years after the cardiac arrest, they were administered 600 mg of N-acetylcystein in a twenty percent solution twice daily. Over the next several months, they made a remarkable recovery. […] They became alert and able to respond initially to tacit and aural stimuli, and later they were able to understand simple sentences.
A person lapsed into a coma from a cerebral hemorrhage secondary to a vascular stroke. As their condition continued to deteriorate, they required a life supporting mechanical ventilation. Several months later they developed a brain abscess that required a craniotomy. This was followed by the appearance of an intense seizure disorder.
Following the surgery, it became possible to gradually wean […] from the respirator, but […] remained in a semi-vegetative state, unable to respond to aural stimuli and fed by a gastrostomy tube. […] remained completely bedridden.
More than three years after the initial event, they were administered 600 mg of N-acetylcystein in a twenty percent solution twice daily via their gastrostomy tube. Over the next several months, they made a remarkable recovery. […] By the third month of treatment, they were able to sit in a wheelchair and express their wishes to be driven around the facility where they resided. By the fourth month of the treatment, they regained the capacity to express themself verbally even though it was restricted to a vocabulary of mono and disyllabic words. They also regained the ability to lift their head, which i previously lay flexed upon their chest, without the use of an assisting device. […] Their neurological and cerebral recoveries continued to progress.
A medical technician experienced a series of multiple strokes that led to a semi-comatose state lasting more than two years. Their medical condition deteriorated over time with the development of multi-organ failures. They required a mechanical ventilation and hemo-dialysis for life support. Three years after the onset of their condition and several months after all efforts to wean them from the respirator failed, they were initially administered 600 mg of N-acetylcystein in a twenty percent solution twice daily via a gastrostomy tube.

From patent US20020165281A1, “Treatment of anoxic encephalophathy by administration of N-acetylcystein” (priority 2001, published 2002) come the findings set out here.

As for `CC(=O)N[C@@H](CS)C(=O)O` [N-acetylcystein], for the setting “acute phase and many months or years after the initial event”, the “Overall therapeutic efficacy indicated by the four cases” value is reported as “reversing a coma as well as other neurological deficits”. For the same compound, for the setting “person on mechanical ventilation, 600 mg every twelve hours via nasal-gastric tube, forty-eight hour period”, the “Breathing / respirator dependence, Case No. 1” value is recorded as “able to breath partially on their own without the respirator”. Moreover, the “Coma / neurological outcome, Case No. 2” value (person, coma for two years after cardiac arrest, 600 mg in twenty percent solution twice daily, over several months) is “awakened from their coma”. In addition, where the note is “person, coma for two years, 600 mg twice daily, by the fourth month of treatment”, the “Verbal response, Case No. 2” value is reported as “able to respond verbally”. Further, the “Coma / neurological outcome, Case No. 1” value (person, deep coma after cardiac arrest, 600 mg in twenty percent solution via nasal-gastric tube every twelve hours, forty-eight hour period) was “completely revived from their coma”. Further, the “Respirator dependence, Case No. 4” value (person, multiple strokes, semi-comatose, ventilated, 600 mg twice daily via gastrostomy tube increased to 2400 mg daily) is “improved and no longer needed the respirator”. Further, where the note is “person, previously bedridden, 600 mg twice daily via gastrostomy tube, by the fifth month of treatment”, the “Ambulation, Case No. 3” value is reported as “able to ambulate more than one hundred steps with the aid of a walker or the wheelchair”. Moreover, the “Neurological outcome, Case No. 3” value (person, semi-vegetative state more than three years after cerebral hemorrhage/stroke, 600 mg twice daily via gastrostomy tube, over several months) was “became completely alert and able to respond to simple verbal commands”. Besides, the “Respirator dependence, Case No. 2” value (person, two years on mechanical ventilation, 600 mg twice daily) was “no longer needed the respirator”.
